Source: patent publication US6479435B1, “Diaryl ethers and processes for their preparation and herbicidal and desiccant compositions containing them” (ISK Americas Incorporated, priority 1997, dated 2002)

Key:
Format in all cases: in vivo
[1] = tested on: lambsquarters (Chenopodium album, CHEAL); test: Pre-emerge greenhouse herbicide test, phytotoxicity rating; settings: 14 days after application, rating scale 0-100
Procedure, shortened: (§1)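 Seeds sown in sandy loam mix one day before track-sprayer application of compounds in acetone at 125–1000 g ai/ha (187 l/ha), then surface-watered to incorporate and bottom-watered. Visual rating 14 days after application on a 0–100 scale (0 = no damage, 100 = all plants dead).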

[2] = tested on: large crabgrass (Digitaria sanguinalis, DIGSA); test: as above; settings: 14 days after application, rating scale 0-100
Procedure, shortened: as §1

[3] = tested on: sicklepod (Cassia obtusifolia, CASOB); test: as above; settings: 14 days after application, rating scale 0-100
Procedure, shortened: as §1

[4] = tested on: velvetleaf (Abutilon theophrasti, ABUTH); test: as above; settings: 14 days after application, rating scale 0-100
Procedure, shortened: as §1

[5] = tested on: barnyardgrass (Echinochloa crusgalli, ECHCG); test: as above; settings: 14 days after application, rating scale 0-100
Procedure, shortened: as §1

[6] = tested on: Johnsongrass (Sorghum halepense, SORHA); test: as above; settings: 14 days after application, rating scale 0-100
Procedure, shortened: as §1

[7] = tested on: redroot pigweed (Amaranthus retroflexus, AMARE); test: as above; settings: 14 days after application, rating scale 0-100
Procedure, shortened: as §1

[8] = tested on: green foxtail (Setaria viridis, SETVI); test: as above; settings: 14 days after application, rating scale 0-100
Procedure, shortened: as §1

[9] = tested on: common ragweed (Ambrosia artemisiifolia L., AMBEL); test: as above; settings: 14 days after application, rating scale 0-100
Procedure, shortened: as §1

[10] = tested on: ivyleaf morningglory (Ipomoea hederacea, IPOHE); test: as above; settings: 14 days after application, rating scale 0-100
Procedure, shortened: as §1

[11] = tested on: soybean (Glycine max L., var. Pella 86, SOY); test: Post-emerge greenhouse test, crop damage rating; settings: 14 days after application
Procedure, shortened: (§2)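 Compounds in acetone with 0.25% v/v non-ionic surfactant were track-sprayed at 187 l/ha over plants at the 2-3 leaf stage, at 63 to 1000 g ai/ha. Pots were bottom-watered. Injury was scored visually 14 days later on a 0-100 scale, where 0 is no damage and 100 is complete plant death.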

[12] = tested on: field corn (Zea mays L., var. Dekalb 535, CORN); test: Post-emerge greenhouse test, crop damage rating; settings: 14 days after application
Procedure, shortened: as §2

[13] = tested on: upland rice (Oryza sp., var.Tebonnet, RICE); test: Post-emerge greenhouse test, crop damage rating; settings: 14 days after application
Procedure, shortened: as §2

[14] = tested on: field corn (Zea mays L., var. Dekalb 535, CORN); test: Pre-emerge greenhouse test, crop damage rating; settings: 14 days after application, rating scale 0-100
Procedure, shortened: as §1

[15] = tested on: upland rice (Oryza sp., var.Tebonnet, RICE); test: Pre-emerge greenhouse test, crop damage rating; settings: 14 days after application, rating scale 0-100
Procedure, shortened: as §1

[16] = tested on: common ragweed (Ambrosia artemisiifolia L., AMBEL); test: Post-emerge greenhouse herbicide test, phytotoxicity rating; settings: 14 days after application
Procedure, shortened: as §2

[17] = tested on: soybean (Glycine max L., var. Pella 86, SOY); test: Pre-emerge greenhouse test, crop damage rating; settings: 14 days after application, rating scale 0-100
Procedure, shortened: as §1

[18] = tested on: lambsquarters (Chenopodium album, CHEAL); test: Post-emerge greenhouse herbicide test, phytotoxicity rating; settings: 14 days after application
Procedure, shortened: as §2

[19] = tested on: large crabgrass (Digitaria sanguinalis, DIGSA); test: as above; settings: 14 days after application
Procedure, shortened: as §2

[20] = tested on: velvetleaf (Abutilon theophrasti, ABUTH); test: as above; settings: 14 days after application
Procedure, shortened: as §2

[21] = tested on: barnyardgrass (Echinochloa crusgalli, ECHCG); test: as above; settings: 14 days after application
Procedure, shortened: as §2

[22] = tested on: Johnsongrass (Sorghum halepense, SORHA); test: as above; settings: 14 days after application
Procedure, shortened: as §2

[23] = tested on: redroot pigweed (Amaranthus retroflexus, AMARE); test: as above; settings: 14 days after application
Procedure, shortened: as §2

[24] = tested on: green foxtail (Setaria viridis, SETVI); test: as above; settings: 14 days after application
Procedure, shortened: as §2

[25] = tested on: ivyleaf morningglory (Ipomoea hederacea, IPOHE); test: as above; settings: 14 days after application
Procedure, shortened: as §2

SMILES: N#Cc1cccnc1Oc1cc(-n2nnn(CCCF)c2=O)c(Cl)cc1Cl [Compound 6-5]
- phytotoxicity rating CHEAL ([1]; 125 g ai/ha): 90
- phytotoxicity rating CHEAL ([1]; 500 g ai/ha): 100
- phytotoxicity rating DIGSA ([2]; 125 g ai/ha): 30
- phytotoxicity rating DIGSA ([2]; 500 g ai/ha): 70
- phytotoxicity rating CASOB ([3]; 125 g ai/ha): 70
- phytotoxicity rating CASOB ([3]; 500 g ai/ha): 50
- phytotoxicity rating ABUTH ([4]; 125 g ai/ha): 0
- phytotoxicity rating ABUTH ([4]; 500 g ai/ha): 90
- phytotoxicity rating ECHCG ([5]; 125 g ai/ha): 0
- phytotoxicity rating ECHCG ([5]; 500 g ai/ha): 0
- phytotoxicity rating SORHA ([6]; 125 g ai/ha): 30
- phytotoxicity rating SORHA ([6]; 500 g ai/ha): 70
- phytotoxicity rating AMARE ([7]; 125 g ai/ha): 90
- phytotoxicity rating AMARE ([7]; 500 g ai/ha): 100
- phytotoxicity rating SETVI ([8]; 125 g ai/ha): 0
- phytotoxicity rating SETVI ([8]; 500 g ai/ha): 100
- phytotoxicity rating AMBEL ([9]; 125 g ai/ha): 0
- phytotoxicity rating AMBEL ([9]; 500 g ai/ha): 50
- phytotoxicity rating IPOHE ([10]; 125 g ai/ha): 40
- phytotoxicity rating IPOHE ([10]; 500 g ai/ha): 40
- SOY crop damage rating (0-100) ([11]; 63 g al/ha): 20
- SOY crop damage rating (0-100) ([11]; 500 g al/ha): 30
- CORN crop damage rating (0-100) ([12]; 63 g al/ha): 0
- CORN crop damage rating (0-100) ([12]; 500 g al/ha): 0
- RICE crop damage rating (0-100) ([13]; 63 g al/ha): 20
- RICE crop damage rating (0-100) ([13]; 500 g al/ha): 30
- crop damage rating CORN ([14]; 125 g ai/ha): 20
- crop damage rating CORN ([14]; 500 g ai/ha): 20
- crop damage rating RICE ([15]; 125 g ai/ha): 20
- crop damage rating RICE ([15]; 500 g ai/ha): 10
- AMBEL phytotoxicity rating (0-100) ([16]; 63 g al/ha): 0
- AMBEL phytotoxicity rating (0-100) ([16]; 500 g al/ha): 0
- crop damage rating SOY ([17]; 125 g ai/ha): 10
- crop damage rating SOY ([17]; 500 g ai/ha): 0
- CHEAL phytotoxicity rating (0-100) ([18]; 63 g al/ha): 20
- CHEAL phytotoxicity rating (0-100) ([18]; 500 g al/ha): 80
- DIGSA phytotoxicity rating (0-100) ([19]; 63 g al/ha): 0
- DIGSA phytotoxicity rating (0-100) ([19]; 500 g al/ha): 10
- ABUTH phytotoxicity rating (0-100) ([20]; 63 g al/ha): 0
- ABUTH phytotoxicity rating (0-100) ([20]; 500 g al/ha): 20
- ECHCG phytotoxicity rating (0-100) ([21]; 63 g al/ha): 0
- ECHCG phytotoxicity rating (0-100) ([21]; 500 g al/ha): 0
- SORHA phytotoxicity rating (0-100) ([22]; 63 g al/ha): 0
- SORHA phytotoxicity rating (0-100) ([22]; 500 g al/ha): 20
- AMARE phytotoxicity rating (0-100) ([23]; 63 g al/ha): 40
- AMARE phytotoxicity rating (0-100) ([23]; 500 g al/ha): 80
- SETVI phytotoxicity rating (0-100) ([24]; 63 g al/ha): 0
- SETVI phytotoxicity rating (0-100) ([24]; 500 g al/ha): 30
- IPOHE phytotoxicity rating (0-100) ([25]; 63 g al/ha): 0
- IPOHE phytotoxicity rating (0-100) ([25]; 500 g al/ha): 0
